{
  "source": "patent US20100137449A1",
  "about": "“SUBSTITUTED 1,3-CYCLOPENTADIONE MULTI-TARGET PROTEIN KINASE MODULATORS OF CANCER, ANGIOGENESIS AND THE INFLAMMATORY PATHWAYS ASSOCIATED THEREWITH” (METAPROTEOMICS, LLC, priority 2007, published 2010)",
  "experiment_in_all_cases": "KinaseProfiler Assay",
  "key": {"[1]": {"molecular_target": "T1, IKKβ(h) (Homo sapiens, UniProt O14920)", "T1 sequence (O14920 1-756)": "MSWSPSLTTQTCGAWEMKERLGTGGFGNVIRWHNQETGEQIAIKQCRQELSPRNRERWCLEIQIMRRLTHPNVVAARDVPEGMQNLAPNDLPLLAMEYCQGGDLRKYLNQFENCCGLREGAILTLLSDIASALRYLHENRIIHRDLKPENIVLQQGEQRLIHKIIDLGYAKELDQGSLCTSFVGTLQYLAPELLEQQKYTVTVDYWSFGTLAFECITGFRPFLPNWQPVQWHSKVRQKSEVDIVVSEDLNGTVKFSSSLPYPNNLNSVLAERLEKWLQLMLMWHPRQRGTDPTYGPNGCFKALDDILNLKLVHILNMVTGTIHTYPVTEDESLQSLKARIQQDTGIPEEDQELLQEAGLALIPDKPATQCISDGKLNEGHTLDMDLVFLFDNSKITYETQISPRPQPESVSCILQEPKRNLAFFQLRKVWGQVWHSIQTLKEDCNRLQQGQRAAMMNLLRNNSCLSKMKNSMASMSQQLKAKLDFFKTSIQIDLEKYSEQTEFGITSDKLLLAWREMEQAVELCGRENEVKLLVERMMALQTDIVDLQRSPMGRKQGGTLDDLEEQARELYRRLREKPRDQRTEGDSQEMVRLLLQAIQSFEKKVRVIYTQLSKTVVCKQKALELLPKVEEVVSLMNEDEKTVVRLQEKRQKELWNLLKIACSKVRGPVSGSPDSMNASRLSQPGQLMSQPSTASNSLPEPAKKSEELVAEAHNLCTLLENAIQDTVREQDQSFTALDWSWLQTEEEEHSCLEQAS"}, "[2]": {"molecular_target": "Yes(h) (Homo sapiens, UniProt P07947)", "sequence (P07947 whole entry)": "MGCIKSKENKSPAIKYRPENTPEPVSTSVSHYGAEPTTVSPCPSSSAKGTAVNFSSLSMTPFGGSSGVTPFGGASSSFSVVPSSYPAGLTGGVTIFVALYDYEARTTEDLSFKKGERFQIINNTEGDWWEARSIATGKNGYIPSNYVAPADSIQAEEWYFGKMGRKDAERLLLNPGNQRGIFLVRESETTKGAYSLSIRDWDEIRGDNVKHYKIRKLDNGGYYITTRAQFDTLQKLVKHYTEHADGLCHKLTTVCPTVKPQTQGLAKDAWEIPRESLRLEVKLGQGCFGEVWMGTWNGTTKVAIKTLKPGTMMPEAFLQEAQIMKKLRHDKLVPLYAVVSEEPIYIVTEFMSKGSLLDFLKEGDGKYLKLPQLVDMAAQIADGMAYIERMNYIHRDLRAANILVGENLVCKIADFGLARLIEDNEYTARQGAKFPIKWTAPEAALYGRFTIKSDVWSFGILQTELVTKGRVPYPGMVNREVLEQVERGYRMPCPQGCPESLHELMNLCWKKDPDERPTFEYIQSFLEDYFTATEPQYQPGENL"}, "[3]": {"molecular_target": "Tie2(R849W)(h) (Homo sapiens, UniProt Q02763, R849W)", "sequence (Q02763 23-1124 R849W)": "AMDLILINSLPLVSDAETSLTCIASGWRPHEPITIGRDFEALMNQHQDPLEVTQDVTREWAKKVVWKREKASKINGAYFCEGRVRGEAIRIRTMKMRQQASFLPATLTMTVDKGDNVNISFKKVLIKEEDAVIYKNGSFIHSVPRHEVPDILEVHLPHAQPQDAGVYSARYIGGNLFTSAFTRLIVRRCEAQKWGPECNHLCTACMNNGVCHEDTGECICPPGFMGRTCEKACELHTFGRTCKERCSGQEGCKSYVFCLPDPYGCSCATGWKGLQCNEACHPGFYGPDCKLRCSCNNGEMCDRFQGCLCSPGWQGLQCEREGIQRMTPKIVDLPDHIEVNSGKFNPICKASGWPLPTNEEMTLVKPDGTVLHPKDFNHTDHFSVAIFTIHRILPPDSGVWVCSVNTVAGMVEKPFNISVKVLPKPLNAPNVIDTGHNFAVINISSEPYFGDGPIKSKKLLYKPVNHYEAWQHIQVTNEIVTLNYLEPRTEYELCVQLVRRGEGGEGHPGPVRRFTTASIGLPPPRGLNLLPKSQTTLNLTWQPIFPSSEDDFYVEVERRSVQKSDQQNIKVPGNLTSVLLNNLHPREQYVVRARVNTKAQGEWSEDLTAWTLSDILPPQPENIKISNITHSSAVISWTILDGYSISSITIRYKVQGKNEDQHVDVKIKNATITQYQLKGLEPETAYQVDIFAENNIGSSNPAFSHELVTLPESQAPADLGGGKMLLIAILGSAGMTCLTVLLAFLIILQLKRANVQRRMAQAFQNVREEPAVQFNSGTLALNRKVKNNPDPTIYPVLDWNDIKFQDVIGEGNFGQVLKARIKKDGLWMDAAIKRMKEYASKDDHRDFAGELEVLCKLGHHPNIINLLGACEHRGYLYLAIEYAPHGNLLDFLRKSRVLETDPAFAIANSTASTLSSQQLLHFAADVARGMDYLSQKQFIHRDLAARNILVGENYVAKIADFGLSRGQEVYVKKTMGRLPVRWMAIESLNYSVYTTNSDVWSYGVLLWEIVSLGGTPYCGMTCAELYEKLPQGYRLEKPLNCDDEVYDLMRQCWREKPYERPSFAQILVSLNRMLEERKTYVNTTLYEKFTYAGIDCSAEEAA"}, "[4]": {"molecular_target": "MST3(h) (Homo sapiens, UniProt Q9Y6E0)", "sequence (Q9Y6E0 whole entry)": "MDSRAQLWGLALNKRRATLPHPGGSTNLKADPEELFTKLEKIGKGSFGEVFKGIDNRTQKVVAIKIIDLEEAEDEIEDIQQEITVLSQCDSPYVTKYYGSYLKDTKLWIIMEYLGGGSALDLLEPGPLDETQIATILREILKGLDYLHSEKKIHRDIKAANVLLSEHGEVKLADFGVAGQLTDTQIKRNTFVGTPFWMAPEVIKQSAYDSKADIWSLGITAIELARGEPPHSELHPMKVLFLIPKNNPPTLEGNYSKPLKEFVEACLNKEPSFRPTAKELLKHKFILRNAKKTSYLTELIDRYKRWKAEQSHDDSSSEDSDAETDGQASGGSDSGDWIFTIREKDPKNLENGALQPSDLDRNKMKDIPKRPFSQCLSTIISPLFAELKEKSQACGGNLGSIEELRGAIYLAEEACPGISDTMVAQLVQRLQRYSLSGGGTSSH"}, "[5]": {"molecular_target": "Abl(Q252H)(h) (Homo sapiens, UniProt P00519, Q252H)"}, "[6]": {"molecular_target": "T2, PKG1α(h) (Homo sapiens, UniProt Q13976)", "T2 sequence (Q13976 1-671)": "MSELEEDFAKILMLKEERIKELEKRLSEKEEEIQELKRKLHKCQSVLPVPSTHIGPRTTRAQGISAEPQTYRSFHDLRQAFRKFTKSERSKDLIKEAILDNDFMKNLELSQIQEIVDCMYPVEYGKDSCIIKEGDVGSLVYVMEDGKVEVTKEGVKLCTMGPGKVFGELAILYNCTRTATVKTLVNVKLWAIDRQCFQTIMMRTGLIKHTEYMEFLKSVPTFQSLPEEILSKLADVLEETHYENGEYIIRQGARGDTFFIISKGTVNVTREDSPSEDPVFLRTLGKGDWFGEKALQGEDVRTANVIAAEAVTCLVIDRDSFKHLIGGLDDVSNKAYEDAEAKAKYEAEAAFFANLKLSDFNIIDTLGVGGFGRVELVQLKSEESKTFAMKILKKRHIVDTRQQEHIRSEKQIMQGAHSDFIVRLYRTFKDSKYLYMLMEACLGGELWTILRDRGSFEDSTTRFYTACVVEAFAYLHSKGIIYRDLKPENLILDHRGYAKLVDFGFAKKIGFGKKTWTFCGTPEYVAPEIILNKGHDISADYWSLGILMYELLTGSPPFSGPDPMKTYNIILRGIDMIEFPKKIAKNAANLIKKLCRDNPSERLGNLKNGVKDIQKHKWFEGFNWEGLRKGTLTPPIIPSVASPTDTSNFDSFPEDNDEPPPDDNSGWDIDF"}, "[7]": {"molecular_target": "PAK2(h) (Homo sapiens, UniProt Q13177)", "sequence (Q13177 whole entry)": "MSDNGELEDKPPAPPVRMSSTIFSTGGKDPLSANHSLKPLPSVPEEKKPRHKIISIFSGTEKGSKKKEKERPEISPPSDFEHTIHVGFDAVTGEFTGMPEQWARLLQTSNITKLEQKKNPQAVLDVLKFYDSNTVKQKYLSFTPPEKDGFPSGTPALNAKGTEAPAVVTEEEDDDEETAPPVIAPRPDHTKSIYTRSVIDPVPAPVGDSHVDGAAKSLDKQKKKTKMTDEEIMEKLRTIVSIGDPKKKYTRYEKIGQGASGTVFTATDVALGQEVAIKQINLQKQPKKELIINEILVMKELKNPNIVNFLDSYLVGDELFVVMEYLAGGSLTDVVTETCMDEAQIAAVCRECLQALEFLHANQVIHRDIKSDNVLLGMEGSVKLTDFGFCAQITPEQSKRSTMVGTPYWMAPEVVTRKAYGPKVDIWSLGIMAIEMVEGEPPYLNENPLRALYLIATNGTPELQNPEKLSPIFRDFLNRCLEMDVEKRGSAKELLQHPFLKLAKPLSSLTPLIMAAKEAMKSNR"}, "[8]": {"molecular_target": "Arg(h) (Homo sapiens, UniProt P42684)", "sequence (P42684 whole entry)": "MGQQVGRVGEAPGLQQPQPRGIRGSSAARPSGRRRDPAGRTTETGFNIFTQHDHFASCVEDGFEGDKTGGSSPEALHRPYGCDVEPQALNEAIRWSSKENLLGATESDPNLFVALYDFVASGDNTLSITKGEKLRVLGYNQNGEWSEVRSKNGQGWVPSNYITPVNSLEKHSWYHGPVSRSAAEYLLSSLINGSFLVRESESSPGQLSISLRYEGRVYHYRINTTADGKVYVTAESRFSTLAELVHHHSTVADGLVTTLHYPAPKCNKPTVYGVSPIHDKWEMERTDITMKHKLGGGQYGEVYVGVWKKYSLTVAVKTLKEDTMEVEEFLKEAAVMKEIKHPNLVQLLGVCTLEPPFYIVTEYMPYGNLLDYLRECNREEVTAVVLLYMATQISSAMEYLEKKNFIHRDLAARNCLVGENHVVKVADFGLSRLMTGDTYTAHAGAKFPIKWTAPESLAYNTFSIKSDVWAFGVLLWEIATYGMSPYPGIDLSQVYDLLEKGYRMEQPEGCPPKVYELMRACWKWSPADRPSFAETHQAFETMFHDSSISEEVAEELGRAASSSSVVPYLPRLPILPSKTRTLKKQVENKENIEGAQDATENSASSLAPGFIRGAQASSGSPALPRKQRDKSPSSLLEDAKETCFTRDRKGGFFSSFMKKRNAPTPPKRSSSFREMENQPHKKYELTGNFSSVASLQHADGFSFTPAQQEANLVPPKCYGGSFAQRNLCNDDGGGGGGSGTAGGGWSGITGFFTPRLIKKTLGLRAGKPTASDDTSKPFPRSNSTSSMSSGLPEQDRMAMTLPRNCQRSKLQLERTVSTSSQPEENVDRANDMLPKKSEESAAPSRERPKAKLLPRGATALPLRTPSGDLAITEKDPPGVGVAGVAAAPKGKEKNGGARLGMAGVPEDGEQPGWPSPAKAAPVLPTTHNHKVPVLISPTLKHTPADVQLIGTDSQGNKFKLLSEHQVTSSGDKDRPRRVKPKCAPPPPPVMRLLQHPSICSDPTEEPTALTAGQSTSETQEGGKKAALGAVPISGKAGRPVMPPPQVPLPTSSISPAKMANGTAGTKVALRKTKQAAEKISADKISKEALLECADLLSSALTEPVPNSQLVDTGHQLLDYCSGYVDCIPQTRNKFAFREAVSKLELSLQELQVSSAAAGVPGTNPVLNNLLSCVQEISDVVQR"}, "[9]": {"molecular_target": "T3, TSSK2(h) (Homo sapiens, UniProt Q96PF2)", "T3 sequence (Q96PF2 1-358)": "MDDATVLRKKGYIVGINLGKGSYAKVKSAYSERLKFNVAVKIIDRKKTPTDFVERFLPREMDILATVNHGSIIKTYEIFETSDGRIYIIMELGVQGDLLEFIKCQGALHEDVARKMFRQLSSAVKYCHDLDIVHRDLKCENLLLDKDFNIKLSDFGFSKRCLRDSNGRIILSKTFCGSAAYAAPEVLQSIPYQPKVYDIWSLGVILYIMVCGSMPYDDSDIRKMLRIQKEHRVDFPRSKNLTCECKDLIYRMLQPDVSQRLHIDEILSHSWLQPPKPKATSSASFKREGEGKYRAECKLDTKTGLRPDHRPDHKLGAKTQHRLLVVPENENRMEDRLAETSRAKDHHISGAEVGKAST"}},
  "data": [
    {"smiles": "CC(C)CCC(=O)[C@]1(O)C(O)=C(C(=O)C(C)C)C(=O)[C@H]1CCC(C)C", "note": "[TH2, tetrahydroiso-cohumulone]", "values": [
      {"measurement": "kinase inhibition", "setting": "[1]; 1 μg/ml", "value": "111% of control"},
      {"measurement": "kinase inhibition", "setting": "[1]; 5 μg/ml", "value": "107% of control"},
      {"measurement": "kinase inhibition", "setting": "[1]; 25 μg/ml", "value": "94% of control"},
      {"measurement": "kinase inhibition", "setting": "[1]; 50 μg/ml", "value": "77% of control"},
      {"measurement": "kinase inhibition", "setting": "[1]; 100 μg/ml", "value": "76% of control"},
      {"measurement": "kinase inhibition", "setting": "[2]; 1 μg/ml", "value": "92% of control"},
      {"measurement": "kinase inhibition", "setting": "[2]; 5 μg/ml", "value": "81% of control"},
      {"measurement": "kinase inhibition", "setting": "[2]; 25 μg/ml", "value": "116% of control"},
      {"measurement": "kinase inhibition", "setting": "[2]; 50 μg/ml", "value": "111% of control"},
      {"measurement": "kinase inhibition", "setting": "[2]; 100 μg/ml", "value": "104% of control"},
      {"measurement": "kinase inhibition", "setting": "[3]; 1 μg/ml", "value": "91% of control"},
      {"measurement": "kinase inhibition", "setting": "[3]; 5 μg/ml", "value": "53% of control"},
      {"measurement": "kinase inhibition", "setting": "[3]; 25 μg/ml", "value": "48% of control"},
      {"measurement": "kinase inhibition", "setting": "[3]; 50 μg/ml", "value": "43% of control"},
      {"measurement": "kinase inhibition", "setting": "[3]; 100 μg/ml", "value": "46% of control"},
      {"measurement": "kinase inhibition", "setting": "[4]; 1 μg/ml", "value": "107% of control"},
      {"measurement": "kinase inhibition", "setting": "[4]; 5 μg/ml", "value": "89% of control"},
      {"measurement": "kinase inhibition", "setting": "[4]; 25 μg/ml", "value": "87% of control"},
      {"measurement": "kinase inhibition", "setting": "[4]; 50 μg/ml", "value": "46% of control"},
      {"measurement": "kinase inhibition", "setting": "[4]; 100 μg/ml", "value": "45% of control"},
      {"measurement": "kinase inhibition", "setting": "[5]; 1 μg/ml", "value": "96% of control"},
      {"measurement": "kinase inhibition", "setting": "[5]; 5 μg/ml", "value": "96% of control"},
      {"measurement": "kinase inhibition", "setting": "[5]; 25 μg/ml", "value": "66% of control"},
      {"measurement": "kinase inhibition", "setting": "[5]; 50 μg/ml", "value": "68% of control"},
      {"measurement": "kinase inhibition", "setting": "[5]; 100 μg/ml", "value": "47% of control"},
      {"measurement": "kinase inhibition", "setting": "[6]; 1 μg/ml", "value": "103% of control"},
      {"measurement": "kinase inhibition", "setting": "[6]; 5 μg/ml", "value": "112% of control"},
      {"measurement": "kinase inhibition", "setting": "[6]; 25 μg/ml", "value": "97% of control"},
      {"measurement": "kinase inhibition", "setting": "[6]; 50 μg/ml", "value": "92% of control"},
      {"measurement": "kinase inhibition", "setting": "[6]; 100 μg/ml", "value": "73% of control"},
      {"measurement": "kinase inhibition", "setting": "[7]; 1 μg/ml", "value": "116% of control"},
      {"measurement": "kinase inhibition", "setting": "[7]; 5 μg/ml", "value": "110% of control"},
      {"measurement": "kinase inhibition", "setting": "[7]; 25 μg/ml", "value": "107% of control"},
      {"measurement": "kinase inhibition", "setting": "[7]; 50 μg/ml", "value": "101% of control"},
      {"measurement": "kinase inhibition", "setting": "[7]; 100 μg/ml", "value": "96% of control"},
      {"measurement": "kinase inhibition", "setting": "[8]; 1 μg/ml", "value": "92% of control"},
      {"measurement": "kinase inhibition", "setting": "[8]; 5 μg/ml", "value": "92% of control"},
      {"measurement": "kinase inhibition", "setting": "[8]; 25 μg/ml", "value": "69% of control"},
      {"measurement": "kinase inhibition", "setting": "[8]; 50 μg/ml", "value": "53% of control"},
      {"measurement": "kinase inhibition", "setting": "[8]; 100 μg/ml", "value": "43% of control"},
      {"measurement": "kinase inhibition", "setting": "[9]; 1 μg/ml", "value": "106% of control"},
      {"measurement": "kinase inhibition", "setting": "[9]; 5 μg/ml", "value": "99% of control"},
      {"measurement": "kinase inhibition", "setting": "[9]; 25 μg/ml", "value": "100% of control"},
      {"measurement": "kinase inhibition", "setting": "[9]; 50 μg/ml", "value": "97% of control"},
      {"measurement": "kinase inhibition", "setting": "[9]; 100 μg/ml", "value": "87% of control"}
    ]}
  ]
}
